2 substances from patent US12270016B1, “Structure and function of modular microfluidic device for in-vitro modeling of human organs” (Alfaisal University, priority 2024, dated 2025) can be followed below.

The test system of assay [1] is differentiated adipocytes. As to the kind of experiment: Glucose uptake by the adipocytes (2-NBDG glucose uptake assay kit) in microfluidic device. Format: cell-based, human. The procedure:
(§1) Cell Culture: In vitro model of the human inflamed adipose tissue (adipocyte/immune cell coculture): Prior to seeding the cells into the microfluidic device, the fluidic compartments underwent a sterilization process by filling them with 70% ethanol for a minimum of 4 hours. Afterward, the microfluidic devices were washed with deionized water, and each microfluidic device was loaded with 100 μL of Poly-L-lysine solution (0.1 mg/mL in H2O) and incubated overnight at 37° C. The microfluidic devices were then washed again, first with sterilized deionized water and then with phosphate-buffered saline (PBS). Next, the microfluidic devices were primed with a preadipocyte growth medium from (Cell Applications). […] Cell viability and morphological changes were monitored using a microscope. […] The concentrations of Tumor Necrosis Factor (TNFα) and Interleukin-6 (IL-6) in the supernatants were measured using an ELISA method. […] The percentage of calcein-AM-labeled cells was used to quantify cell viability. The growth and morphology of the cells were regularly monitored under the microscope. […] To assess cell differentiation of the adipocytes, the lipid content within adipocytes was monitored by staining the lipid droplets with Oil Red O (Sigma-Aldrich, St. Louis, MO, USA). […]

Assay [2] relates to Adipocytes and U937 cells. The assay is described as follows: Cytokine immunoassay (ELISA) of supernatants from adipocyte/immune cell co-culture in VasChip3x2 microfluidic device. The class given is cell-based, human. The conditions noted are these: inflammation state induced with 100 ng/ml LPA. The procedure: as §1

For the substance lysophosphatidic acid [LPA], the glucose uptake entry in assay [1] (adipocyte/U937 co-culture, inflammation state induced with 100 ng/ml LPA) is on record as “decrease”. For the same substance, the “cytokine secretion (TNF and IL-6 in the supernatants)” value in assay [2] is on record as “significant increase”.

Turning to insulin, the glucose uptake entry in assay [1] (adipocyte monoculture, after insulin treatment) is given as “significant glucose uptake”.
